According to PMC11229689, “In Vitro Selection of Macrocyclic L-α/D-α/β/γ-Hybrid Peptides Targeting IFN-γ/IFNGR1 Protein–Protein Interaction” (Journal of the American Chemical Society, 2024):
Read-outs that look alike come from different tables or passages of the source. *1 amine or outer side, *2 acyl side, *3 side chain or, on linkers, in order; H or OH if unused. Where a SMILES comes first, the peptide text is derived from it. Bridges are numbered along the chain shown (N, C = ends). [ ]: non-standard residue; d: D form. Acbc(trans-1,3) = O=C([C@H]1C[C@H](N[*:1])C1)[*:2]; Acbc(cis-1,3) = O=C([C@H]1C[C@@H](N[*:1])C1)[*:2]; X1 = O=C([C@@H]1CCC[C@@H]1N[*:1])[*:2]; Orn = NCCC[C@H](N)C(=O)O

Experiments:
[1] = biological target: T1, Fc-tagged human IFNGR1 (Homo sapiens, UniProt P15260); assay: Binding kinetics and affinity to IFNGR1 by surface plasmon resonance (SPR); details: SPR, 25 °C, 1:1 binding model; for Kd: read-out: KD; for kon: single-cycle kinetics, read-out: ka
T1 construct: purchased ACROBiosystems
T1 sequence (P15260 18-489): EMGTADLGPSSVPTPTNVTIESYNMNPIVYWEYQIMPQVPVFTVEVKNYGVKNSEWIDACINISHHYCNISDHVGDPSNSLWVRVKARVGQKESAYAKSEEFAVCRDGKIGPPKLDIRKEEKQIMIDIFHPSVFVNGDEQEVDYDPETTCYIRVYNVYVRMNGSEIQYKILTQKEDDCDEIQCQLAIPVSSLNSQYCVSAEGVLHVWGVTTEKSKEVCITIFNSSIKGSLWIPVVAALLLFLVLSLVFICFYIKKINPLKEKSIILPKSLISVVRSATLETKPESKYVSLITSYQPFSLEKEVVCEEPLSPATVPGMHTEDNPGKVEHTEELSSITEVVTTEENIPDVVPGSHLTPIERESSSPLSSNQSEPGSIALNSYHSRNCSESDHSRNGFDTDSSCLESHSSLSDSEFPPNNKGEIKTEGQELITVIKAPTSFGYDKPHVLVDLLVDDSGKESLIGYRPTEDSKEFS
Protocol: (§1) Binding affinities of IA1 and IA2 against IFNGR1 were evaluated by surface plasmon resonance (SPR) (Table 1 and SI Figure S6A). […] To investigate the contribution of the N-terminal [yVPβ^1RR] motif and β^1 residue in IA1, three scrambled peptides IA1s1–3 and a variant IA1β^14A were synthesized and evaluated. […] We next evaluated inhibitory activities of IA1 and IA2 against the ligand–receptor PPI between IFN-γ and IFNGR1 using AlphaLISA (Table 1 and SI Figure S7).[37] […] We also determined the serum half-lives of IA1 and IA2, considering peptidase resistance as an important factor for therapeutic peptides.[24] A sample peptide and a peptidase-resistant internal standard peptide were coincubated in human serum at 37 °C, and the relative amount of the remaining sample peptide was estimated by LC/MS. […]
Evaluation of binding affinity of peptides by surface plasmon resonance The binding affinities of selected peptides and IFNGR1 were analyzed by surface plasmon resonance (SPR) using a Biacore T200 instrument (Cytiva) at 25 °C with the following running buffer: 10 mM Tris-HCl (pH 8.0), 150 mM NaCl, 0.05% (v/v) Tween 20 , and 0.1% (v/v) DMSO. Fc-tagged IFNGR1 was immobilized on a series S sensor chip protein G (Cytiva) to a surface density of 1,200–1,600 response units following the immobilization protocols provided by Cytiva. The kinetic constants were determined by a single-cycle kinetics method by the injection of five different concentrations (twofold dilution series) of each peptide at a flow rate of 30 μL/min. The resulting sensorgrams were fitted to the standard 1:1 interaction model and analyzed using Biacore evaluation software. […]

[2] = biological target: T2, IFN-γ/IFNGR1 protein–protein interaction (Homo sapiens, UniProt P15260); assay: IFNGR1 inhibition assay using AlphaLISA; format: biochemical; details: four-parameter dose–response fit, n = 3
T2 construct: purchased ACROBiosystems
T2 sequence (P15260 18-245 limits assumed): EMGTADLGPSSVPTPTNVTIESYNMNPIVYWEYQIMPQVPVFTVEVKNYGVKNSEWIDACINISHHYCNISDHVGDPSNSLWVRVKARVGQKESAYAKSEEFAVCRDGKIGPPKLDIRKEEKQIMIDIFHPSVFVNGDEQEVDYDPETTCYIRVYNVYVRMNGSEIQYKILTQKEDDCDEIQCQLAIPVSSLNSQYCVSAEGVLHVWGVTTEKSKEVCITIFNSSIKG
Protocol: IFNGR1 inhibition assay using AlphaLISA
The inhibitory activity of peptides against IFN-γ/IFNGR1 protein–protein interaction (PPI) was determined by AlphaLISA.5 Peptides, proteins, and beads were diluted in AlphaLISA immunoassay buffer (PerkinElmer, AL000C). 3.6 μL of 5 nM Fc-tagged IFNGR1 and 3.6 μL of synthetic peptides were mixed in AlphaPlate-384 Shallow Well (PerkinElmer) and preincubated at 25 °C for 10 min. 3.6 μL of 15 nM biotin-tagged IFN-γ was then added to the mix and incubated at 25 °C for 20 min. 3.6 μL each human IgG acceptor beads (PerkinElmer) and streptavidin donor beads (PerkinElmer) were added to the above mix and incubated at 25 °C for 30 min in dark place. Emission at 615 nm was measured […]
by EnSpire Multimode Plate Reader (PerkinElmer). The fraction of bound IFN-γ/IFNGR1 was calculated by the intensity of emission in the presence of peptide divided by that in the absence of […]
peptide. […]
Puromycin. Normocin, Blasticidin, Zeocin, and Puromycin were excluded when conducting the experiments. To evaluate the cellular activity of peptides, peptide mixtures were added to 50,000 cells/well in a flat-bottom 96-well plate and pre-incubated for 30 min at 37 °C before stimulation.
Subsequently, 1 ng/mL of recombinant IFN-γ (InvivoGen) was added to each well in a final reaction volume of 200 μL, followed by incubation for 20 h at 37 °C. 20 μL of supernatants from the induced cells was added to 180 μL Q U A N T I-Blue TM solution (InvivoGen). After further incubation for 3 h at 37 °C, the expression levels of the secreted embryonic alkaline phosphatase (SEAP) were determined by reading the O.D. at 650 nm on a Tecan M1000 PRO microplate reader (Tecan Group) and normalized to the non-treated well. IC50 value was analyzed by a normalized dose-response curve fitting by using GraphPad Prism 9.
HEK-DualTM IFN-γ cells were used for the cell viability assay. 10,000 cells/well were added to each well in a flat-bottom 96-well plate. After 24 h, peptide mixtures were added to each well in a final volume of 100 μL. After further incubation for 24 h, 10 μL CCK-8 reagent (Dojindo) was added to […]

[3] = Serum stability assay (LC/MS); format: in vitro ADME, human; details: for half-life: human
Protocol: as §1
10–200 μM synthetic peptide and 5 μM serum-resistant internal standard peptide consisting only of D-amino acids (NH2-PEG5-wstndwstnd-PEG5-CONH2)3 were mixed and incubated in human serum (Cosmo Bio, 12181201) at 37 °C for up to 120 h. At each time point, 4 μL of the mixture was removed and quenched by adding 12 μl methanol. Following centrifugation (15,000 g, 4 °C, 5 min), 10 μL of the supernatant was mixed with 40 μl of 1% (v/v) TFA. Following centrifugation (15,000 g, 4 °C, 5 min), the supernatant was collected for LC/MS analysis, which used a reverse-phase column (ACQUITY UPLC BEH C18, 1.7 μm, 2.1 × 150 mm; Waters) and a Xevo G2-XS QTof system (Waters) with a linear gradient from 1% B to 61% B. Buffer A was water with 0.1% (v/v) formic acid; buffer B was acetonitrile with 0.1% (v/v) formic acid. The percentages of remaining peptides were determined by the peak area integration of the chromatograms. For tandem mass spectrometry, MS/MS spectra were acquired with a 0.2 s scan time, with 10−30 eV collision energy. The obtained LC/MS data was analyzed using MassLynx 4.1 (Waters). […]

[4] = human serum, 37 °C, LC/MS, relative to internal standard peptide, n = 3, read-out: half-life in human serum (t1/2) (converted)
[5] = serum, half-life in human serum (t1/2)
[6] = human serum, 37 °C, LC/MS, relative to internal standard peptide, n = 3

SMILES	Kd [1]	kon [1]	IC50 [2]	half-life [3, 4]	half-life [3, 5]	half-life in human serum (t1/2) [3, 6]
CC(C)[C@@H]1NC(=O)[C@@H](Cc2ccc(O)cc2)NC(=O)CSC[C@H](C(N)=O)NC(=O)[C@H](CC(N)=O)NC(=O)[C@H](CO)NC(=O)[C@H](CCCNC(=N)N)NC(=O)[C@H](CO)NC(=O)[C@H]2C[C@@H](C2)NC(=O)[C@H](CC(N)=O)NC(=O)[C@H]([C@@H](C)O)NC(=O)[C@H](Cc2c[nH]cn2)NC(=O)[C@H](CCCNC(=N)N)NC(=O)[C@H](CCCNC(=N)N)NC(=O)[C@@H]2CCC[C@@H]2NC(=O)[C@@H]2CCCN2C1=O [IA2, ^AcyVPβ^1RRHTNγ^2SRSNc-NH2] ({CH2CO}-[dY]VP[X1]RRHTN[Acbc(trans-1,3)]SRSN[dC]-NH2; thioether N-15)	0.15 ± 0.04 µM	120000 ± 50000 M⁻¹ s⁻¹	0.33 ± 0.02 µM	> 2.6 h		
CC(C)[C@@H]1NC(=O)[C@@H](Cc2ccc(O)cc2)NC(=O)CSC[C@H](C(N)=O)NC(=O)[C@H](CCCN)NC(=O)[C@H](CO)NC(=O)[C@H](CCCN)NC(=O)[C@H](Cc2c[nH]cn2)NC(=O)CNC(=O)[C@H]2C[C@H](C2)NC(=O)[C@H](Cc2c[nH]cn2)NC(=O)[C@H](CC(N)=O)NC(=O)[C@H](CCCNC(=N)N)NC(=O)[C@H](CCCNC(=N)N)NC(=O)[C@@H]2CCC[C@@H]2NC(=O)[C@H](C)NC1=O [IB1Orn, ^AcyVAβ^1RRNHγ^1GHOSOc-NH2] ({CH2CO}-[dY]VA[X1]RRNH[Acbc(cis-1,3)]GH[Orn]S[Orn][dC]-NH2; thioether N-15)	0.011 ± 0.003 µM	1.4e+06 ± 900000 M⁻¹ s⁻¹	0.017 ± 0.003 µM		33 ± 1 h	
CC(C)[C@@H]1NC(=O)[C@@H](Cc2ccc(O)cc2)NC(=O)CSC[C@H](C(N)=O)NC(=O)[C@H](CCCNC(=N)N)NC(=O)[C@H](CO)NC(=O)[C@H](CCCNC(=N)N)NC(=O)[C@H](Cc2c[nH]cn2)NC(=O)CNC(=O)[C@H](C)NC(=O)[C@H](Cc2c[nH]cn2)NC(=O)[C@H](CC(N)=O)NC(=O)[C@H](CCCNC(=N)N)NC(=O)[C@H](CCCNC(=N)N)NC(=O)[C@@H]2CCC[C@@H]2NC(=O)[C@H](C)NC1=O [IB1γ^19A, ^AcyVAβ^1RRNHA GHRSRc-NH2] ({CH2CO}-[dY]VA[X1]RRNHAGHRSR[dC]-NH2; thioether N-15)	0.0095 ± 0.004 µM	110000 ± 20000 M⁻¹ s⁻¹	0.011 ± 0.004 µM	0.17 ± 0.01 h		
CC(C)[C@@H]1NC(=O)[C@@H](Cc2ccc(O)cc2)NC(=O)CSC[C@H](C(N)=O)NC(=O)[C@H](CCCNC(=N)N)NC(=O)[C@H](CO)NC(=O)[C@H](CCCNC(=N)N)NC(=O)[C@H](Cc2c[nH]cn2)NC(=O)CNC(=O)[C@H]2C[C@@H](C2)NC(=O)[C@H](Cc2c[nH]cn2)NC(=O)[C@H](CC(N)=O)NC(=O)[C@H](CCCNC(=N)N)NC(=O)[C@H](CCCNC(=N)N)NC(=O)[C@@H]2CCC[C@@H]2NC(=O)[C@H](C)NC1=O [IB1γ^19γ^2, ^AcyVAβ^1RRNHγ^2GHRSRc-NH2] ({CH2CO}-[dY]VA[X1]RRNH[Acbc(trans-1,3)]GHRSR[dC]-NH2; thioether N-15)	0.047 ± 0.015 µM	250000 ± 250000 M⁻¹ s⁻¹	0.55 ± 0.03 µM	0.77 ± 0.02 h		
CC(C)[C@@H]1NC(=O)[C@@H](Cc2ccc(O)cc2)NC(=O)CSC[C@H](C(N)=O)NC(=O)[C@H](C)NC(=O)[C@H](Cc2c[nH]cn2)NC(=O)[C@H](CCCNC(=N)N)NC(=O)[C@H](CCCNC(=N)N)NC(=O)CNC(=O)[C@H]2C[C@H](C2)NC(=O)[C@H](Cc2c[nH]cn2)NC(=O)[C@H](CC(N)=O)NC(=O)[C@H](CCCNC(=N)N)NC(=O)[C@H](CCCNC(=N)N)NC(=O)[C@@H]2CCC[C@@H]2NC(=O)[C@H](C)NC1=O [IB2, ^AcyVAβ^1RRNHγ^1GRRHAc-NH2] ({CH2CO}-[dY]VA[X1]RRNH[Acbc(cis-1,3)]GRRHA[dC]-NH2; thioether N-15)	0.031 ± 0.008 µM	200000 ± 90000 M⁻¹ s⁻¹	0.079 ± 0.011 µM	< 1.3 h		1.3 ± 0.1 h
CC(C)[C@@H]1NC(=O)[C@@H](Cc2ccc(O)cc2)NC(=O)CSC[C@H](C(N)=O)NC(=O)[C@H](C)NC(=O)[C@H](CO)NC(=O)[C@H](CCCN)NC(=O)[C@H](CCCN)NC(=O)CNC(=O)[C@H]2C[C@H](C2)NC(=O)[C@H](Cc2c[nH]cn2)NC(=O)[C@H](CC(N)=O)NC(=O)[C@H](CCCNC(=N)N)NC(=O)[C@H](CCCNC(=N)N)NC(=O)[C@@H]2CCC[C@@H]2NC(=O)[C@H](C)NC1=O [IB3Orn, ^AcyVAβ^1RRNHγ^1GOOSAc-NH2] ({CH2CO}-[dY]VA[X1]RRNH[Acbc(cis-1,3)]G[Orn][Orn]SA[dC]-NH2; thioether N-15)	0.034 ± 0.005 µM	950000 ± 680000 M⁻¹ s⁻¹	0.07 ± 0.004 µM		42 ± 2 h	
CC(C)[C@@H]1NC(=O)[C@@H](Cc2ccc(O)cc2)NC(=O)CSC[C@H](C(N)=O)NC(=O)[C@H](CC(N)=O)NC(=O)[C@H]2C[C@@H](C2)NC(=O)[C@H](CCCNC(=N)N)NC(=O)[C@@H]2CCCN2C(=O)[C@H]([C@@H](C)O)NC(=O)[C@H](CCCNC(=N)N)NC(=O)[C@H](CCCNC(=N)N)NC(=O)[C@H](CO)NC(=O)[C@H](CCCNC(=N)N)NC(=O)[C@H](CCCNC(=N)N)NC(=O)[C@@H]2CCC[C@@H]2NC(=O)[C@@H]2CCCN2C1=O [IB4, ^AcyVPβ^1RRSRRTPRγ^2Nc-NH2] ({CH2CO}-[dY]VP[X1]RRSRRTPR[Acbc(trans-1,3)]N[dC]-NH2; thioether N-15)	0.022 ± 0.011 µM	160000 ± 190000 M⁻¹ s⁻¹	0.047 ± 0.015 µM	< 1.3 h		1.1 ± 0.0 h
